Source: patent US20250137054A1, “COMPOSITION AND METHOD FOR EVALUATING RESPONSIVENESS OF EDARAVONE” (MITSUBISHI TANABE PHARMA CORPORATION, priority 2022, published 2025)

Test system: disease model cells (neurons derived from the 1464R cell line forcibly expressing wild-type and mutant TDP-43)
Test: RNA-seq gene expression analysis in disease model cells
Format: cell-based, rat
Method: Using both vectors (a) and (b), the differentiated cell line in the infection medium was infected with adenovirus at a multiplicity of infection of 50, and cultured for 24 hours. As a result, neurons derived from the 1464R cell line, in which both wild-type and mutant TDP-43 were forcibly expressed intracellularly (hereinafter, also referred to as disease model cells), were obtained.
In the present evaluation, a 6-well plate treated with poly-L-lysine was used, cells were seeded at a density of 1×10^6 cells per well, cultured under the conditions of (1) of Example 1, and differentiated cells were used.
(3) Group 3 (TDP-43+EA exposed group; represented as ‘Group 3’ in FIG. 4 and FIGS. 7-11): After preparing the disease model cells expressing TDP-43, the cells were cultured in differentiation medium free of Eda but containing EA (final concentration 20 μmol/L) for 24 hours. This experimental group forcibly expresses TDP-43 and simulates conditions where the target has a neurodegenerative disease and remains untreated.
(4) Group 4 (TDP-43+EA+Eda exposed group; represented as ‘Group 4’ in FIG. 4 and FIGS. 7-11): After preparing the disease model cells expressing TDP-43, the cells were cultured in differentiation medium containing Eda (final concentration 50 μmol/L) but free of EA for 24 hours. After that, EA (final concentration 20 μmol/L) was further added, and the cells were further cultured for an additional 24 hours. This experimental group simulates conditions where the target with a neurodegenerative disease is administered or exposed to Eda.
After the culture was completed, cell pellets containing 1×10^6 or more cells were obtained from the experimental groups (1)-(4). Total RNA was extracted from these cell pellets using NucleoSpin RNA (manufactured by Macherey-Nagel) according to a product protocol.
Using the extracted total RNA (1.0 ng) as a template, double-stranded cDNA was synthesized using the SMART method using the SMART-Seq v4 Ultra (registered trademark) Low Input RNA Kit for Sequencing (manufactured by Clontech) according to a product protocol.
Next, using the NovaSeq6000 system (NovaSeq6000 S4 reagent kit, NovaSeq Xp4 lane kit, and NovaSeq control software (version 1.6.0); all manufactured by Illumina), sequences of the cDNA library were determined according to a product protocol.
Next, using the DRAGEN Bio-IT platform software (version 3.6.3, manufactured by Illumina) and referring to the rat genome assembly (version 6.0, top-level) and transcript annotation (release 101) obtained from the Ensembl database, types and abundance of genes were identified from the 150-base sequence information contained in the FASTQ files mentioned above.
An RNA expression level (TPM) of a transcription product i measured from the cDNA library of the experimental groups was calculated based on alignment to the rat genome and transcription product annotation from the Ensembl database, according to the following equation (A).
Differential expression analysis was performed using DESeq2 (a package for two-group comparison) in the statistical analysis software R (version 3.6.0) to calculate a log 2 ratio of RNA expression levels and a significance test. The log 2 ratio is a value expressed as “log 2 ([expression level of a first measurement target]/[expression level of a second measurement target]).”
The significance test was performed based on a p-value calculated by Wald test with multiple testing correction based on the Benjamini-Hochberg method (BH method).
In the present analysis, a gene with an absolute log 2 ratio of 1 or more (expression change ratio of 2.0 times or more or 0.50 times or less) and a p-value of 0.01 or less from the Wald test between any two groups was identified as a “gene with a change in expression level” (differentially expressed gene; DEG).
The X-axis represents a first principal component, and the Y-axis represents a second principal component, with their respective contribution rates expressed as percentages. […]

[1] = Group 3 (TDP43 + EA) vs Group 2 (Eda)
[2] = Group 4 (TDP43 + EA + Eda) vs Group 1 (control)
[3] = Group 4 (TDP43 + EA + Eda) vs Group 2 (Eda)
[4] = Group 4 (TDP43 + EA + Eda) vs Group 3 (TDP43 + EA)
[5] = Group 4 (TDP43+EA+Eda 50 μmol/L) vs Group 3 (TDP43+EA), RNA expression
[6] = in the presence of edaravone, TDP-43 mutant protein present

## CC1=NN(c2ccccc2)C(=O)C1 [edaravone, 5-methyl-2-phenyl-2,4-dihydro-3H-pyrazol-3-one]
[1]
  number of downregulated genes (DEGs): 478
  number of upregulated genes (DEGs): 876
[2]
  number of downregulated genes (DEGs): 1,095
  number of upregulated genes (DEGs): 1,654
[3]
  number of downregulated genes (DEGs): 1,130
  number of upregulated genes (DEGs): 1,661
[4]
  number of downregulated genes (DEGs): 260
  number of upregulated genes (DEGs): 169
Group 4 (TDP43 + EA + Eda) vs Group 3 (TDP43 + EA), FIG. 6
  gene expression profile (principal component analysis of RNA-seq data): distinctly different gene expression profiles
[5]
  Group 4 to Group 3 log2 ratio: Acsl6 (acyl-CoA synthetase long-chain family member 6): −1.582
  Group 4 to Group 3 log2 ratio: Cebpb (CCAAT/enhancer binding protein beta): 1.661
  Group 4 to Group 3 log2 ratio: Glrx (glutaredoxin): −1.262
  Group 4 to Group 3 log2 ratio: Ho-1 (hemeoxygenase 1): 1.755
  Group 4 to Group 3 log2 ratio: HspaS (heat shock protein family A (Hsp70) member 8): 1.151
  Group 4 to Group 3 log2 ratio: Hsph1 (heat shock protein family H (Hsp110) member 1): 1.027
  Group 4 to Group 3 log2 ratio: Mt1 (metallothionein 1): −1.392
  Group 4 to Group 3 log2 ratio: Nefl (neurofilament light): −1.778
  Group 4 to Group 3 log2 ratio: Nfe2l2 (nuclear factor, erythroid 2-like 2): 0.923
  Group 4 to Group 3 log2 ratio: Nup43 (nucleoporin 43): −0.888
  Group 4 to Group 3 log2 ratio: Pik3cb: 1.157
  Group 4 to Group 3 log2 ratio: Plcg2 (phospholipase C, gamma 2): 0.881
  Group 4 to Group 3 log2 ratio: Plpp3 (phospholipid phosphatase 3): 1.307
  Group 4 to Group 3 log2 ratio: Ptgds (prostaglandin D2 synthase): 0.954
  Group 4 to Group 3 log2 ratio: Sqstm1 (sequestosome 1): 1.225
  Group 4 to Group 3 log2 ratio: Txndc2 (thioredoxin domain containing 2): 1.153
Group 4 (TDP43+EA+Eda 50 μmol/L) vs Group 3 (TDP43+EA), RNA expression, DESeq2
  log 2 ratio Group 4/Group 3: Alpl (ALPL): −1.098
[6]
  expression level of a gene product of ALPL: decreases
  expression level of a gene product of ASF1B: decreases
  expression level of a gene product of DCTD: decreases
  expression level of a gene product of FAIM2: increases
  expression level of a gene product of FCSK: decreases
  expression level of a gene product of HAUS4: decreases
  expression level of a gene product of ITGB4: decreases
  expression level of a gene product of KAZALD1: decreases
  expression level of a gene product of MAST1: decreases
  expression level of a gene product of MT2A: decreases
  expression level of a gene product of NTM: decreases
  expression level of a gene product of PTTG1: decreases
  expression level of a gene product of SBK1: decreases
  expression level of a gene product of SCN2A: decreases
  expression level of a gene product of UBE2L6: decreases
